# PubChem BioAssay (NCI)
#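 In this assay, cells in 96-well plates receive the compound at five concentrations for 48 hours. Endpoints are linearly interpolated between the surrounding concentrations. Here, GI50 denotes the concentration required for 50% inhibition of growth. At the TGI there is no net growth.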
# How the values were obtained:
# Experiment in all cases: NCI anticancer screen, dose series, 48 h
# 786-0 renal = tested on: 786-0 renal
# A498 renal = tested on: A498 renal
# A549 NSCLC = tested on: A549 NSCLC
# ACHN renal = tested on: ACHN renal
# CAKI-1 renal = tested on: CAKI-1 renal
# COLO 205 colon = tested on: COLO 205 colon
# DLD-1 colon = tested on: DLD-1 colon
# DMS 114 small cell lung = tested on: DMS 114 small cell lung
# DMS 273 small cell lung = tested on: DMS 273 small cell lung
# EKVX NSCLC = tested on: EKVX NSCLC
# HCC-2998 colon = tested on: HCC-2998 colon
# HCT-116 colon = tested on: HCT-116 colon
# HCT-15 colon = tested on: HCT-15 colon
# HL-60(TB) leukemia = tested on: HL-60(TB) leukemia
# HOP-62 NSCLC = tested on: HOP-62 NSCLC
# HOP-92 NSCLC = tested on: HOP-92 NSCLC
# HT29 colon = tested on: HT29 colon
# IGROV1 ovarian = tested on: IGROV1 ovarian
# KM12 colon = tested on: KM12 colon
# KM20L2 colon = tested on: KM20L2 colon
# LOX IMVI melanoma = tested on: LOX IMVI melanoma
# LXFL 529 NSCLC = tested on: LXFL 529 NSCLC
# M14 melanoma = tested on: M14 melanoma
# M19-MEL melanoma = tested on: M19-MEL melanoma
# MALME-3M melanoma = tested on: MALME-3M melanoma
# MOLT-4 leukemia = tested on: MOLT-4 leukemia
# NCI-H226 lung = tested on: NCI-H226 lung
# NCI-H23 lung = tested on: NCI-H23 lung
# NCI-H460 lung = tested on: NCI-H460 lung
# NCI-H522 lung = tested on: NCI-H522 lung
# OVCAR-3 ovarian = tested on: OVCAR-3 ovarian
# OVCAR-4 ovarian = tested on: OVCAR-4 ovarian
# OVCAR-5 ovarian = tested on: OVCAR-5 ovarian
# OVCAR-8 ovarian = tested on: OVCAR-8 ovarian
# RXF 393 renal = tested on: RXF 393 renal
# SF-268 CNS = tested on: SF-268 CNS
# SF-295 CNS = tested on: SF-295 CNS
# SF-539 CNS = tested on: SF-539 CNS
# SK-MEL-2 melanoma = tested on: SK-MEL-2 melanoma
# SK-MEL-28 melanoma = tested on: SK-MEL-28 melanoma
# SK-MEL-5 melanoma = tested on: SK-MEL-5 melanoma
# SK-OV-3 ovarian = tested on: SK-OV-3 ovarian
# SN12C renal = tested on: SN12C renal
# SNB-19 CNS = tested on: SNB-19 CNS
# SNB-75 CNS = tested on: SNB-75 CNS
# SNB-78 CNS = tested on: SNB-78 CNS
# SR leukemia = tested on: SR leukemia
# SW-620 colon = tested on: SW-620 colon
# TK-10 renal = tested on: TK-10 renal
# U251 CNS = tested on: U251 CNS
# UACC-257 melanoma = tested on: UACC-257 melanoma
# UACC-62 melanoma = tested on: UACC-62 melanoma
# UO-31 renal = tested on: UO-31 renal
# XF 498 CNS = tested on: XF 498 CNS
smiles,measurement,setting,value
CCC[CH2][Sn]([CH2]CCC)([O]C(=O)c1ccc(C)c(N)c1)[O]C(=O)c1ccc(C)c(N)c1,GI50,786-0 renal,0.323 µM
same,TGI,786-0 renal,1.31 µM
same,GI50,A498 renal,0.351 µM
same,TGI,A498 renal,1.21 µM
same,GI50,A549 NSCLC,2.82 µM
same,TGI,A549 NSCLC,8.33 µM
same,GI50,ACHN renal,0.352 µM
same,TGI,ACHN renal,1.32 µM
same,GI50,CAKI-1 renal,0.136 µM
same,TGI,CAKI-1 renal,1.38 µM
same,GI50,COLO 205 colon,0.33 µM
same,TGI,COLO 205 colon,1.38 µM
same,GI50,DLD-1 colon,0.282 µM
same,TGI,DLD-1 colon,1.25 µM
same,GI50,DMS 114 small cell lung,0.132 µM
same,TGI,DMS 114 small cell lung,0.322 µM
same,GI50,DMS 273 small cell lung,0.623 µM
same,TGI,DMS 273 small cell lung,1.97 µM
same,GI50,EKVX NSCLC,0.6 µM
same,TGI,EKVX NSCLC,1.94 µM
same,GI50,HCC-2998 colon,1.14 µM
same,TGI,HCC-2998 colon,2.36 µM
same,GI50,HCT-116 colon,0.527 µM
same,TGI,HCT-116 colon,1.86 µM
same,GI50,HCT-15 colon,0.698 µM
same,TGI,HCT-15 colon,2.01 µM
same,GI50,HL-60(TB) leukemia,0.144 µM
same,TGI,HL-60(TB) leukemia,0.863 µM
same,GI50,HOP-62 NSCLC,2.29 µM
same,TGI,HOP-62 NSCLC,3.78 µM
same,GI50,HOP-92 NSCLC,0.305 µM
same,TGI,HOP-92 NSCLC,1.7 µM
same,GI50,HT29 colon,1.34 µM
same,TGI,HT29 colon,2.64 µM
same,GI50,IGROV1 ovarian,1.16 µM
same,TGI,IGROV1 ovarian,2.42 µM
same,GI50,KM12 colon,1.31 µM
same,TGI,KM12 colon,2.61 µM
same,GI50,KM20L2 colon,1.5 µM
same,TGI,KM20L2 colon,2.82 µM
same,GI50,LOX IMVI melanoma,0.185 µM
same,TGI,LOX IMVI melanoma,0.681 µM
same,GI50,LXFL 529 NSCLC,0.0473 µM
same,TGI,LXFL 529 NSCLC,0.176 µM
same,GI50,M14 melanoma,0.647 µM
same,TGI,M14 melanoma,1.92 µM
same,GI50,M19-MEL melanoma,0.244 µM
same,TGI,M19-MEL melanoma,1.28 µM
same,GI50,MALME-3M melanoma,0.179 µM
same,TGI,MALME-3M melanoma,0.776 µM
same,GI50,MOLT-4 leukemia,0.108 µM
same,TGI,MOLT-4 leukemia,0.643 µM
same,GI50,NCI-H226 lung,0.334 µM
same,TGI,NCI-H226 lung,1.44 µM
same,GI50,NCI-H23 lung,0.203 µM
same,TGI,NCI-H23 lung,1 µM
same,GI50,NCI-H460 lung,1.43 µM
same,TGI,NCI-H460 lung,2.74 µM
same,GI50,NCI-H522 lung,0.018 µM
same,TGI,NCI-H522 lung,0.117 µM
same,GI50,OVCAR-3 ovarian,1.07 µM
same,TGI,OVCAR-3 ovarian,2.26 µM
same,GI50,OVCAR-4 ovarian,1.24 µM
same,TGI,OVCAR-4 ovarian,2.48 µM
same,GI50,OVCAR-5 ovarian,1.82 µM
same,TGI,OVCAR-5 ovarian,3.22 µM
same,GI50,OVCAR-8 ovarian,0.91 µM
same,TGI,OVCAR-8 ovarian,2.12 µM
same,GI50,RXF 393 renal,0.116 µM
same,TGI,RXF 393 renal,0.511 µM
same,GI50,SF-268 CNS,0.418 µM
same,TGI,SF-268 CNS,1.63 µM
same,GI50,SF-295 CNS,1.24 µM
same,TGI,SF-295 CNS,2.49 µM
same,GI50,SF-539 CNS,0.619 µM
same,TGI,SF-539 CNS,1.89 µM
same,GI50,SK-MEL-2 melanoma,0.172 µM
same,TGI,SK-MEL-2 melanoma,0.72 µM
same,GI50,SK-MEL-28 melanoma,0.347 µM
same,TGI,SK-MEL-28 melanoma,1.57 µM
same,GI50,SK-MEL-5 melanoma,1.08 µM
same,TGI,SK-MEL-5 melanoma,2.28 µM
same,GI50,SK-OV-3 ovarian,1.84 µM
same,TGI,SK-OV-3 ovarian,3.24 µM
same,GI50,SN12C renal,0.537 µM
same,TGI,SN12C renal,1.83 µM
same,GI50,SNB-19 CNS,1.2 µM
same,TGI,SNB-19 CNS,2.43 µM
same,GI50,SNB-75 CNS,0.502 µM
same,TGI,SNB-75 CNS,1.87 µM
same,GI50,SNB-78 CNS,0.277 µM
same,TGI,SNB-78 CNS,1.54 µM
same,GI50,SR leukemia,0.179 µM
same,TGI,SR leukemia,3.62 µM
same,GI50,SW-620 colon,0.224 µM
same,TGI,SW-620 colon,1.04 µM
same,GI50,TK-10 renal,0.515 µM
same,TGI,TK-10 renal,1.66 µM
same,GI50,U251 CNS,0.287 µM
same,TGI,U251 CNS,1.28 µM
same,GI50,UACC-257 melanoma,0.334 µM
same,TGI,UACC-257 melanoma,1.62 µM
same,GI50,UACC-62 melanoma,0.378 µM
same,TGI,UACC-62 melanoma,1.44 µM
same,GI50,UO-31 renal,1.11 µM
same,TGI,UO-31 renal,2.31 µM
same,GI50,XF 498 CNS,0.181 µM
same,TGI,XF 498 CNS,0.353 µM
